Laboratory results published in PubChem BioAssay (NCI).
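Step 1: Grow cells in 96-well plates. Step 2: Expose to compound for 48 hours at 5 concentrations. Step 3: Interpolate endpoints linearly; if unreached, use highest concentration. GI50 = concentration required for 50% inhibition of growth. Definition used: TGI = concentration required for complete inhibition of growth.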

Columns and labels:
Experiment in all cases: inhibition of tumour cell growth, NCI panel, 48 h
[1] = system: A498 renal
[2] = system: SK-MEL-28 melanoma
[3] = system: M14 melanoma
[4] = system: 786-0 renal
[5] = system: COLO 205 colon
[6] = system: OVCAR-5 ovarian
[7] = system: UO-31 renal
[8] = system: CAKI-1 renal
[9] = system: HCT-116 colon
[10] = system: U251 CNS

Compound | TGI [1] [µM] | TGI [2] [µM] | TGI [3] [µM] | TGI [4] [µM] | TGI [5] [µM] | TGI [6] [µM] | TGI [7] [µM] | TGI [8] [µM] | TGI [9] [µM] | TGI [10] [µM] | GI50 [1] [µM] | GI50 [2] [µM] | GI50 [3] [µM] | GI50 [9] [µM] | GI50 [4] [µM] | GI50 [5] [µM] | GI50 [10] [µM] | GI50 [6] [µM] | GI50 [7] [µM] | GI50 [8] [µM]
C[C@]12C/C(=C/O)C(=O)C(O)=C1CC[C@@H]1C2CC[C@@]2(C)C1CC[C@@H]2O (some centres not stated) | 65.1 | 48.2 | 38.1 | 87.5 | 44.5 | 46.1 | 31.3 | 76.6 |  |  |  |  |  |  |  |  |  |  |  | 
Cc1cccc(N=Nc2ccc(N=Nc3c(O)ccc4ccccc34)cc2C)c1 |  | > 100 | > 100 | > 100 | > 100 | > 100 | > 100 | > 100 | > 100 | > 100 |  |  |  |  |  |  |  |  |  | 
N.N.N.N.N.O=S(=O)([O-])S(=O)(=O)[O-].[Co+3] | > 100 | > 100 | > 100 | > 100 | > 100 | > 100 | > 100 |  | > 100 | > 100 | > 100 | > 100 | > 100 | > 100 | > 100 | > 100 | > 100 | > 100 | > 100 | 
O=C1/C(=C/c2cccc([N+](=O)[O-])c2)Sc2scc(-c3ccc([N+](=O)[O-])cc3)[n+]21 |  | 62.3 | > 100 | 38.3 | > 100 | 51.2 | 24.1 | 51.5 | 34.9 | > 100 |  |  |  |  |  |  |  |  |  | 
C/C1=C\CC[C@@](C)(O)[C@@H]2C[C@H](CC/C(C)=C/CC1)C1(CC1)C(=O)O2 |  | 41.3 | 91.6 | > 100 | 36.4 | > 100 | > 100 | 50.2 | 54.1 | 57.1 |  | 18 | 32.7 | 24.2 | 44.6 | 15.6 | 23 | 54.9 | 46.5 | 22.2
COc1ccccc1NC(=O)/C(=C/c1ccccc1)C(C)=O |  | > 100 | 67.6 | > 100 |  | > 100 | > 100 | > 100 | > 100 | 15 |  |  |  |  |  |  |  |  |  | 
Cc1cccc(N(CC(=O)O)S(=O)(=O)c2ccccc2)c1 | > 100 | > 100 | > 100 | > 100 | > 100 | > 100 | > 100 | > 100 |  | > 100 |  |  |  |  |  |  |  |  |  | 
CCOC(=O)c1c(SCCN2CCOCC2)n(-c2ccccc2)c(=S)n(-c2ccccc2)c1=O |  | 53.8 | > 100 | 46 | > 100 | > 100 | > 100 |  |  | > 100 |  |  |  |  |  |  |  |  |  | 
CCOC(=O)N1CCN(CCCCCOc2ccccc2C2CCCCC2)CC1 | 26.9 | 16.3 | 11 | 3.78 | 7.14 |  |  | 12.8 | 9.65 | 19 | 13.5 | 2.87 | 2.98 | 2.16 | 1.86 | 2.32 | 5.05 |  |  | 3.23
O=C1[C@H]2ON(c3ccccc3)C(c3ccco3)[C@H]2C(=O)N1c1ccc(Cc2ccc(N3C(=O)[C@@H]4ON(c5ccccc5)C(c5ccco5)[C@@H]4C3=O)cc2)cc1 (some centres not stated) | > 100 | > 100 | > 100 | > 100 | > 100 | > 100 | > 100 | > 100 |  | > 100 |  |  |  |  |  |  |  |  |  | 
N#Cc1c(-c2ccco2)cc(-c2ccccc2)[nH]c1=O | > 100 | > 100 | > 100 | > 100 | > 100 | > 100 | > 100 |  | > 100 | > 100 |  |  |  |  |  |  |  |  |  | 
Cc1nc(-c2cccnc2)sc1C(=O)/C=C/c1cccc([N+](=O)[O-])c1 | > 100 | > 100 |  | > 100 | > 100 | > 100 | > 100 | > 100 |  | > 100 |  |  |  |  |  |  |  |  |  | 
Cc1ccc(NC(=O)/C(Cc2nc3ccc([N+](=O)[O-])cc3[nH]c2=O)=N\NC(=O)C[n+]2ccccc2)c(C)c1 |  | > 100 | > 100 | 79.9 | > 100 | > 100 | 41.1 | > 100 | > 100 | > 100 |  |  |  |  |  |  |  |  |  | 
CC1=NN(C(=O)c2ccncc2)C(=O)C1N=Nc1ccc(F)cc1 (configuration not stated) | > 100 | > 100 | > 100 | > 100 | > 100 | > 100 | > 100 | > 100 | > 100 |  |  |  |  |  |  |  |  |  |  | 
O=C1CNS(=O)(=O)N1 | > 100 | > 100 | > 100 | > 100 | > 100 |  | > 100 | > 100 | > 100 |  |  |  |  |  |  |  |  |  |  | 
C=C1C2Oc3ccccc3C1N(c1ccccc1)O2 (configuration not stated) |  | > 100 | 67.1 | > 100 | > 100 | > 100 | > 100 | > 100 | 54.2 | 90 |  |  |  |  |  |  |  |  |  | 
COc1ccc2[nH]c(-c3ccc(O)cc3)cc(=O)c2c1 | 0.725 | > 100 | 82.1 | > 58.1 | 6.25 | > 82.8 | 98.2 |  | 10.4 | 9.29 |  |  |  |  |  |  |  |  |  | 
Nc1ccccc1C(=O)C(Br)C(Br)c1ccc2c(c1)OCO2 (configuration not stated) | 60.7 | 70.4 | 41.3 | > 100 | 27.4 |  | 45.1 |  | 31.1 | 49.6 |  |  |  |  |  |  |  |  |  | 
O=C(/C=C/c1cccc(O)c1)c1cccc(-n2cc(-c3ccc4ccccc4c3)[nH]c2=O)c1 |  | 12.4 | 3.07 | 3.13 | 4.65 | 3.6 | 2.64 |  | 1.45 | 2.28 |  | 3.79 | 1.49 | 0.407 | 1.74 | 2.09 | 1.09 | 1.89 | 1.26 | 
C=CCNC(=O)N(CCC)CCCC(NC(C)=O)C(=O)NCc1ccccc1 (configuration not stated) | > 100 | > 100 | > 100 | > 100 | > 100 | > 100 | > 100 | > 100 |  | > 100 |  |  |  |  |  |  |  |  |  | 
O=c1[nH]c2cc([N+](=O)[O-])ccc2nc1/C(=N\Nc1ccccc1)C(O)c1ccc2c(c1)OCO2 (configuration not stated) |  | > 100 | > 100 | > 100 | > 100 |  | > 100 |  | > 100 | > 100 |  |  |  |  |  |  |  |  |  | 
